Measurements published in US7851466B2, “Pyrimidine compounds and uses thereof” (Synta Pharmaceuticals Corp., priority 2004, dated 2010).

Assays:
[1] = test system: adjuvant arthritis (AA) in female Lewis rats; experiment: Treatment of adjuvant arthritis in rats; assay type: in vivo, rat; details: oral administration once a day for 12 days; experiments repeated four times
Procedure: Treatment of adjuvant arthritis in rats: Adjuvant arthritis (AA) was induced in female Lewis rats by the intracutaneous injection (base of the tail) of 0.1 mL of a 10 mg/mL bacterial suspension made from ground, heat-killed Mycobacterium tuberculosis H37Ra suspended in incomplete Freund's adjuvant. Rats were given a test compound orally once a day for 12 days, starting the day following the induction. The development of polyarthritis was monitored daily by macroscopic inspection and assignment of an arthritis index to each animal, during the critical period (days 10 to 25 post-immunization).
The intensity of polyarthritis was scored according to the following scheme: (a) Grade each paw from 0 to 3 based on erythema, swelling, and deformity of the joints: 0 for no erythema or swelling; 0.5 if swelling is detectable in at least one joint; 1 for mild swelling and erythema; 2 for swelling and erythema of both tarsus and carpus; and 3 for ankylosis and bony deformity. Maximum score for all 4 paws was thus 12. […]
Experiments with the AA model were repeated four times. […] The arthritis score used in this model was a reflection of the inflammatory state of the structures monitored and the results therefore show the ability of the test compound to provide relief for this aspect of the pathology.

[2] = test system: colitis in T cell-reconstituted C.B-17 SCID mice; experiment: CD4+ CD45Rb high T cell-reconstituted SCID colitis model mice; assay type: in vivo, mouse
Procedure: Treatment of Crohn's disease in CD4^+ CD45Rb^high T cell-reconstituted SCID colitis model mice: Spleen cells were prepared from normal female BALB/c mice. For cell purification, the following anti-mouse antibodies were used to label non-CD4^+ T cells: B220 (RA3-6B2), CD11b (M1/70), and CD8α (53-6.72). All antibodies were obtained from BioSource (Camarillo, Calif.). M450 anti-rat IgG-coated magnetic beads (Dynal, Oslo, Norway) were used to bind the antibodies and negative selection was accomplished using an MPC-1 magnetic concentrator. The enriched CD4^+ cells were then labeled for cell sorting with FITC-conjugated CD45RB (16A, Pharmingen, San Diego, Calif.) and PE-conjugated CD4 (CT-CD4, Caltag, Burlingame, Calif.). CD4^+ CD45RB^high cells were operationally defined as the upper 40% of CD45Rb-staining CD4^+ cells and sorted under sterile conditions by flow cytometry. Harvested cells were resuspended at 4×10^6/mL in PBS and injected 100 μL intraperitoneally into female C.B-17 SCID mice. Pyrimidine compounds of this invention (e.g., Compound 12) and/or vehicle was orally administered once a day, 5 days per week, starting the day following the transfer. The transplanted SCID mice were weighed weekly and their clinical condition was monitored.
Colon tissue samples were fixed in 10% buffered formalin and embedded in paraffin. Sections (4 μm) collected from ascending, transverse, and descending colon were cut and stained with hematoxylin and eosin. The severity of colitis was determined based on histological examination of the distal colon sections, whereby the extent of colonic inflammation was graded on a scale of 0-3 in each of four criteria: crypt elongation, cell infiltration, depletion of goblet cells, and the number of crypt abscesses.
LP lymphocytes were isolated from freshly obtained colonic specimens. After removal of payer's patches, the colon was washed in Ca/Mg-free HBSS, cut into 0.5 cm pieces and incubated twice in HBSS containing EDTA (0.75 mM), DTT (1 mM), and antibiotics (amphotericin 2.5 μg/mL, gentamicin 50 μg/mL from Sigma) at 37° C. for 15 min. Next, the tissue was digested further in RPMI containing 0.5 mg/mL collagenase D, 0.01 mg/mL DNase I (Boehringer Manheim), and antibiotics at 37° C. […]
To measure cytokine production, 48-well plates were coated with 10 μg/mL murine anti-CD3ε antibody (145-2C11) in carbonate buffer (PH 9.6) overnight at 4° C. […] Murine IFNγ was measured using an ELISA kit from Endogen (Cambridge, Mass.), according to the manufacturer's instructions.
The calculated colon-to-body weight ratio was consistent with the histological score, showing attenuation by treatment with the test compound.

[3] = test system: DNBS-induced distal colitis in Wistar derived rats; experiment: Dinitrobenzene sulfonic acid-induced inflammatory bowel syndrome model rats; assay type: in vivo, rat; details: oral, 24 and 2 hours before DNBS instillation and then daily for 5 days
Procedure: Treatment of Crohn's disease in dinitrobenzene sulfonic acid-induced inflammatory bowel syndrome model rats: Wistar derived male or female rats weighing 200±20 g and fasted for 24 hours were used. Distal colitis was induced by intra-colonic instillation of 2,4-dinitrobenzene sulfonic acid (DNBS, 25 mg in 0.5 mL ethanol 30%) after which air (2 mL) was gently injected through the cannula to ensure that the solution remained in the colon. A test compound and/or vehicle was administered orally 24 and 2 hours before DNBS instillation and then daily for 5 days. One control group was similarly treated with vehicle alone while the other is treated with vehicle plus DNBS. The animals were sacrificed 24 hours after the final dose of test compound administration and each colon was removed and weighed. Colon-to-body weight ratio was then calculated for each animal according to the formula: Colon (g)/BW×100. The “Net” increase in ratio of Vehicle-control+DNBS group relative to Vehicle-control group was used as a base for comparison with test substance treated groups and expressed as “% Deduction.” Pyrimidine compounds of this invention (e.g., Compound 12) reproducibly had about 30% deduction. A 30% or more reduction in colon-to-body weight ratio, relative to the vehicle treated control group, was considered significant.
These experiments were repeated three times and the effects were reproducible.

[4] = test system: IL-23; experiment: Inhibition of IL-23 in stimulated human PBMC (p19 capture ELISA); assay type: cell-based
Excerpt: The level of inhibition of IL-23 inhibition by a compound of the invention can be measured by a similar assay in which human peripheral blood mononuclear cells (PBMC) or human monocytic cell line (THP-1) are stimulated with a combination of human interferon-γ (IFNγ) and lipopolysaccharide (LPS) or a combination of IFNγ and Staphylococcus aureus Cowan I (SAC) in the presence of a test compound. The level of inhibition of IL-23 production can be measured by determining the amount of p19 by using a sandwich ELISA assay with antibodies the recognize p19 subunit of IL-23. IC50 of the test compound can then be determined. One such assay is disclosed herein in Example 30.
Therefore, inhibition of IL-23 in addition to IL-12 is expected. In order to confirm the hypothesis, an assay was established to specifically detect IL-23 using polyclonal antibodies recognizing p19 (R&D Systems, MN), an IL-23 specific subunit. A 96-well plate was coated with the antibodies at 1 μg/ml, and after washing incubated with the supernatants of human peripheral blood mononuclear cells (PBMC). The culture was stimulated with 1 μg/ml of liposaccharide (LPS) (FIG. 2) or 0.025% of S. aureus Cowan I (SAC) (FIG. 1) in the presence of test compound after IFN-γ priming. The captured IL-23 was then detected by a biotinylated goat anti-human p40 antibody that binds to p40 subunit of human IL-12 and IL-23 as a monomer or in the context of the respective heterodimer (Part 840099 of product DY1240 from R&D Systems). The plate was developed by incubation with streptavidin-HRP and then substrate solution (R&D Systems Cat # DY999). Recombinant IL-23 (R&D Systems) was added as standard in the assay. The estimated detection range is from 0.1 to 10 ng/ml, and 1 ng/ml recombinant IL-12 heterodimer (Cell Sciences, MA) and p40 monomer (R&D Systems) were under detection limit. To compare with the inhibition of IL-23, the supernatant was also analyzed for IL-12 heterodimer and total p40 proteins using IL-12 specific ELISA kit (Cell Sciences) and p40 ELISA kit (R&D Systems) respectively.

Structure (SMILES): Cc1cccc(C=NNc2cc(N3CCOCC3)nc(OCCc3ccccn3)n2)c1 [Compound 12, N-(3-methyl-benzylidene)-N′-[6-morpholin-4-yl-2-(2-pyridin-2-yl-ethoxy)-pyrimidin-4-yl]-hydrazine]
- arthritic score [1]: reproducibly reduced the arthritic score
- development of polyarthritis [1]: delayed the development of polyarthritis in a dose-dependent manner
- IFNγ production by LP cells ([2]; LP cells ex vivo in response to anti-CD3 antibody and anti-CD28 antibody, 48 h): greatly diminished the production
- colon-to-body weight ratio ([2]; oral administration): attenuation
- colonic inflammation (histological analysis) ([2]; oral administration once a day, 5 days per week, compared to vehicle control): reduced colonic inflammation
- suppressive effect on colonic inflammation at 10 mg/kg ([2]; oral, dose of 10 mg/kg): substantial reduction
- % Deduction (net increase in colon-to-body weight ratio) [3]: about 30%
- inhibition of IL-23 ([4]; IFN-γ/SAC and IFN-γ/LPS-stimulated human PBMC): inhibited by compound 12 in a dose-dependent manner
- inhibitory activity against IL-23 compared with that against IL-12 ([4]; stimulated human PBMC): slightly lower than that against IL-12
- inhibitory activity against IL-23 compared with that against p40 ([4]; stimulated human PBMC): comparable to that against p40
